Measurements taken from US5578445A, “In vitro method of evaluating the effects of a substance” (priority 1991, dated 1996).

Assays:
[1] = target: T1, estrogen receptor (Homo sapiens, UniProt P03372); experiment: pS2 secretion, additional set of experiments, ZR 75-1 in 96-well trays, pS2 RIA; details: for relative amount of pS2 (no hormone added = 1): zr 75-1 cells, 48 h
T1 sequence (P03372 1-595): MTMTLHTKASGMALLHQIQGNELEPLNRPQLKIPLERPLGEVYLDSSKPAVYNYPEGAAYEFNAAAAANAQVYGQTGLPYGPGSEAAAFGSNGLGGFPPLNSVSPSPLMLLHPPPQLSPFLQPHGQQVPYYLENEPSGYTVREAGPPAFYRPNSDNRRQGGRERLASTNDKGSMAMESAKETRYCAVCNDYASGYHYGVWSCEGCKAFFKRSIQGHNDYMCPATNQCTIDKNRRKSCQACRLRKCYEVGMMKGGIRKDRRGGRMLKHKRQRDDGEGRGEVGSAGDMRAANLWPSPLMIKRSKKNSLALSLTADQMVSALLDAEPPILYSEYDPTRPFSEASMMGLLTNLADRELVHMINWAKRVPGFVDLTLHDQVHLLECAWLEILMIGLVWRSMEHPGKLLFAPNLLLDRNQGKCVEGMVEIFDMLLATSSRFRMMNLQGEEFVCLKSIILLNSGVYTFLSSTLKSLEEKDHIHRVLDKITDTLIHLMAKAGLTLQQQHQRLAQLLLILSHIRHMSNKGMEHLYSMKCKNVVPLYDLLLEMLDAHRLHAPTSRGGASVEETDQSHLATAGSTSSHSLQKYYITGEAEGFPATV
Protocol: (§1) The amount of pS2 secreted into the medium was determined with the aid of a commercial RIA (ELSA pS2 from CIS Bioindustries, Gif-sur-Yvette, France).
(§2) Samples of the cells ZR 75-1 and MCF7, respectively, were distributed into plastic petridishes (suitable for the culturing of mammalian cells).
(§3) Samples of the cells ZR 75-1 ([…]) and MCF7 (2.5×10^4 cells/well), respectively, were distributed in 96-well trays. The cells were distributed in the same medium as used on day 1.
(§4) The wells were washed with 100 μl Coon's medium/well. The first medium was replaced by the second medium (B) without 1% FCS. The following hormone additions were made:
(§5) 48 hours after the hormone addition the number of cells and their morphology were investigated. Medium from each well was transferred to Eppendorf tubes. The possible amount of pS2 in the medium samples was analyzed with the aid of a commercial pS2 RIA (ELSA pS2 ).

[2] = target: T1, estrogen receptor; experiment: Cathepsin D secretion, additional set of experiments, ZR 75-1 in 96-well trays, Cath D RIA
Protocol: (§6) The amount of Cath D secreted into the medium was determined with the aid of a commercial RIA (ELSA-CATD-D from CIS Bio-industries, Gif-sur-Yvette, France).
as §2
(§7) Samples of the cells ZR 75-1 (4×10^4 cells/well) and MCF7 (2.5×10^4 cells/well), respectively, were distributed in 96-well trays. The cells were distributed in the same medium as used on day 1.
as §4
(§8) 48 hours after the hormone addition the number of cells and their morphology were investigated. Medium from each well was transferred to Eppendorf tubes. The possible amount of Cath D in the medium samples was analyzed with the aid of a commercial Cath D RIA (ELSA-CATH-D).

[3] = system: MCF7; experiment: Proliferation, amount of ATP after 6 days, MCF7
[4] = target: T1, estrogen receptor; experiment: Cathepsin D secretion, additional set of experiments, MCF7 in 96-well trays, Cath D RIA
Protocol: as §6, §2, §7, §4, §8

[5] = target: T1, estrogen receptor; experiment: Cathepsin D secretion into medium, MCF7 in petridishes, Cath D RIA
Protocol: The experiment was conducted using the human breast cancer cell line MCF7 (ATCC HTB 22). The selected cellular response to be analyzed was the amount of expressed cathepsin D (Cath D), the expression of which is regulated by the estrogen receptor. […] The amount of Cath D secreted into the medium was determined with the aid of a commercial RIA (ELSA-CATH-D from CIS Bioindustries, Gif-sur-Yvette, France). The performance of the method is as follows:
A sample of the cell line MCF7 (4×10^5 cells) was distributed into plastic petridishes (suitable for the culturing of mammalian cells). The cells were suspended in the first medium (C).
The petridishes were incubated at 37° C. and 5% CO2 in a temperature and humidity controlled chamber.
The first medium (C) was replaced by the second medium, which consisted of fresh first medium (C). The following hormone additions were made:
The petridishes were incubated in the temperature and humidity controlled chamber under the same conditions as above.
72 hours after the hormone addition visual inspection of the number of cells and their morphology was performed. Medium from each petridish was transferred to Eppendorf tubes and centrifuged 7 minutes at 1000rpm (Eppendorf centrifuge). The amount of Cath D in the medium samples was analyzed with the aid of the commercial Cath D RIA (ELSA-CATH D)

[6] = target: T1, estrogen receptor; experiment: pS2 secretion, additional set of experiments, MCF7 in 96-well trays, pS2 RIA; details: for relative amount of pS2 (no hormone added = 1): mcf7 cells, 48 h
Protocol: as §1, §2, §3, §4, §5

[7] = ZR-75-1, 48 h, read-out: relative amount of pS2 (no hormone added = 1)
[8] = 10^-8 M LY 117018, presence of 10^-10 M E2
[9] = MCF7, 48 h, read-out: relative amount of pS2 (no hormone added = 1)

## O=C(c1ccc(OCCN2CCCC2)cc1)c1c(-c2ccc(O)cc2)sc2cc(O)ccc12 [LY 117018]
[1]; ZR 75-1, 10 nM LY 117018 and 0.1 nM E2
  inhibition of the expression of pS2: inhibited down to the same level as in the absence of added hormone
[1]; ZR 75-1, 10^-8 M LY 117018, presence of 10^-10 M E2
  function on pS2 expression: functions as an antagonist
[1]; ZR 75-1, presence of 0.1 nM E2
  antagonist strength compared with Tamoxifen, pS2: stronger antagonist than Tamoxifen
[1]; ZR 75-1, substance alone, without E2
  influence on the pS2 secretion: do not have an influence
[1]; [7]
  fold induction at 0.001 µM: 0.9
  fold induction at 0.01 µM: 0.86
  fold induction at 0.1 µM: 0.78
  fold induction at 1 µM: 0.75
[1]; 0.001 µM
  relative amount of pS2 (no hormone added = 1): 1.96
[1]; 0.01 µM
  relative amount of pS2 (no hormone added = 1): 0.84
[1]; 0.1 µM
  relative amount of pS2 (no hormone added = 1): 0.91
[1]; 1 µM
  relative amount of pS2 (no hormone added = 1): 0.83
[2]; 10 nM LY 117018 and 0.1 nM E2
  inhibition of the expression of Cath D: inhibited down to same level as in the absence of added hormone
[2]; [8]
  function on Cath D expression: functions as an antagonist
[2]; presence of 0.1 nM E2
  antagonist strength compared with Tamoxifen, Cath D: stronger antagonist than Tamoxifen
[2]; substance alone, without E2
  influence on the Cath D secretion: do not have an influence
[3]; Homo sapiens, MCF7, 144 h, read-out: relative amount of ATP (no hormone added = 1), MCF7, + 10^-6 M LY 117018, -E2, 6 days
  activity at 1 µM: 27%
[3]; Homo sapiens, MCF7, 144 h, read-out: relative amount of ATP (no hormone added = 1), MCF7, + 10^-7 M LY 117018, -E2, 6 days
  activity at 0.1 µM: 89%
[3]; Homo sapiens, MCF7, 144 h, read-out: relative amount of ATP (no hormone added = 1), MCF7, + 10^-8 M LY 117018, -E2, 6 days
  activity at 0.01 µM: 89%
[3]; Homo sapiens, MCF7, 144 h, read-out: relative amount of ATP (no hormone added = 1), MCF7, + 10^-9 M LY 117018, -E2, 6 days
  activity at 0.001 µM: 85%
[3]; MCF7, 0.1 nM E2 and 10 nM LY 117018
  inhibition of growth: inhibited down to the same level as in the absence of added hormone
[3]; MCF7, 10^-7 M LY 117018, presence of 10^-10 M E2
  function on growth: functions as an antagonist
[3]; MCF7, presence of 0.1 nM E2
  antagonist strength compared with Tamoxifen, growth: stronger antagonist than Tamoxifen
[4]; 10 nM LY 117018 and 0.1 nM E2
  inhibition of the expression of Cath D: inhibited down to same level as in the absence of added hormone
[4]; [8]
  function on Cath D expression: functions as an antagonist
[4]; presence of 0.1 nM E2
  antagonist strength compared with Tamoxifen, Cath D: stronger antagonist than Tamoxifen
[4]; substance alone, without E2
  influence on the Cath D secretion: do not have an influence
[5]; MCF7, 72 h, read-out: relative amount of Cath D (no hormone added = 1)
  fold induction at 0.1 µM: 0.88
[5]; MCF7, 10^-7 M LY 117018, both in the absence and in the presence of 10^-8 M E2
  function on Cath D expression: acts as an estrogen antagonist
[6]; [9]
  fold induction at 0.001 µM: 0.89
  fold induction at 0.01 µM: 1
  fold induction at 0.1 µM: 0.93
  fold induction at 1 µM: 1
[6]; MCF7, 10 nM LY 117018 and 0.1 nM E2
  inhibition of the expression of pS2: inhibited down to the same level as in the absence of added hormone
[6]; MCF7, 10^-8 M LY 117018, presence of 10^-10 M E2
  function on pS2 expression: functions as an antagonist
[6]; MCF7, presence of 0.1 nM E2
  antagonist strength compared with Tamoxifen, pS2: stronger antagonist than Tamoxifen
[6]; MCF7, substance alone, without E2
  influence on the pS2 secretion: do not have an influence
[6]; 0.001 µM
  relative amount of pS2 (no hormone added = 1): 2.01
[6]; 0.01 µM
  relative amount of pS2 (no hormone added = 1): 1.11
[6]; 0.1 µM
  relative amount of pS2 (no hormone added = 1): 1.19
[6]; 1 µM
  relative amount of pS2 (no hormone added = 1): 1.18
